Results taken from paper PMC5574463, “Improving ethanol yield in acetate-reducing Saccharomyces cerevisiae by cofactor engineering of 6-phosphogluconate dehydrogenase and deletion of ALD6” (Microbial Cell Factories, 2016).

Key:
Experiment in all cases: spectrophotometric NADH formation at […] nm, cell extract
Assay type in all cases: biochemical
Conditions in all cases: 0.4 mM NAD+, 5 mM 6-phosphogluconate, 5 mM MgCl2, 50 mM Tris-HCl pH 8.0, 30 C
[1] = molecular target: T1, B. japonicum 6pgdh (NAD+-dependent 6-phosphogluconate dehydrogenase) (Bradyrhizobium diazoefficiens, UniProt Q89FE2)
T1 construct: gene blr6759; codon-optimized gene, TPI1 promoter, integrated at GND1 locus of S. cerevisiae gnd1 gnd2 deletion strain IMX706; cell extract

[2] = molecular target: T2, G. oxydans gox1705 (NAD+-preferring 6-phosphogluconate dehydrogenase) (Gluconobacter oxydans, UniProt G5EBD7)
T2 construct: codon-optimized gene, TPI1 promoter, integrated at GND1 locus of S. cerevisiae gnd1 gnd2 deletion strain IMX707; cell extract

[3] = molecular target: T3, GndA (M. flagellatus NAD+-dependent 6-phosphogluconate dehydrogenase, gndA) (Methylobacillus flagellatus, UniProt Q9L9P8)
T3 construct: codon-optimized gene, TPI1 promoter, integrated at GND1 locus of S. cerevisiae gnd1 gnd2 deletion strain IMX705; cell extract
T3 sequence (Q9L9P8 entry or part of it): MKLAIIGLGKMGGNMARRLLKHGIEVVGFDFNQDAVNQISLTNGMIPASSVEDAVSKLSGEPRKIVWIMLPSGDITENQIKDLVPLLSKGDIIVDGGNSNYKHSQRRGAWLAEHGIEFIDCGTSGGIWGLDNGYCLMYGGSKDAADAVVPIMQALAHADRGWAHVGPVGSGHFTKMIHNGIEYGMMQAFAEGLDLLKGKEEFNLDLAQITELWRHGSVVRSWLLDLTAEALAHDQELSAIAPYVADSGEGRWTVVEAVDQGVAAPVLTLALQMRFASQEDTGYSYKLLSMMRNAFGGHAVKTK

T1 sequence (Q89FE2 entry or part of it): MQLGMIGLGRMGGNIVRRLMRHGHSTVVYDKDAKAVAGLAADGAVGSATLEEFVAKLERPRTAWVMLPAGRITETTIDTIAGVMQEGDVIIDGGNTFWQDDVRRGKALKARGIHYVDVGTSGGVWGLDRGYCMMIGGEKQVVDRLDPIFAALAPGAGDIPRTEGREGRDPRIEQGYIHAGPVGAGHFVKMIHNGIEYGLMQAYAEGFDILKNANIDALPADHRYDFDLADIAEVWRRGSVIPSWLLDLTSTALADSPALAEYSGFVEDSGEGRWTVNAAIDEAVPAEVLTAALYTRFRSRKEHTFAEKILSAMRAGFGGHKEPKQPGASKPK
T2 sequence (G5EBD7 whole entry): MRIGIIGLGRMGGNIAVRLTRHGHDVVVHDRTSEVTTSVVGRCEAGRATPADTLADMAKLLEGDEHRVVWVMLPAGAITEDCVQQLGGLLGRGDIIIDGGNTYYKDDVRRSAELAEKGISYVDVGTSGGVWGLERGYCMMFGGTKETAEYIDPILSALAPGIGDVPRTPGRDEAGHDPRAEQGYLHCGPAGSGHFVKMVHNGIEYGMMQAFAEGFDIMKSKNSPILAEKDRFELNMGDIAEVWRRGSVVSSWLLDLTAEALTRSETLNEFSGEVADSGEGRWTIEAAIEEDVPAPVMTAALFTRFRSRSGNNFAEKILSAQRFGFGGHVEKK

Question: Which results are given for `NC(=O)c1ccc[n+]([C@@H]2O[C@H](COP(=O)(O)OP(=O)(O)OC[C@H]3O[C@@H](n4cnc5c(N)ncnc54)[C@H](O)[C@@H]3O)[C@@H](O)[C@H]2O)c1` [NAD^+]?
Answer: spectrophotometric NADH formation at 340 nm, cell extract [1]: expressing bacterial 6-PGDH genes showed high specific activities with NAD^+ as the electron acceptor; spectrophotometric NADH formation at 340 nm, cell extract [2]: expressing bacterial 6-PGDH genes showed high specific activities with NAD^+ as the electron acceptor; spectrophotometric NADH formation at 340 nm, cell extract [3]: expressing gndA from M. flagellatus, showed the highest in vitro NAD^+-dependent 6-PGDH activity
